Laboratory results from patent publication US9963464B2, “Macrocyclic compounds” (Bayer Pharma Aktiengesellschaft, priority 2014, dated 2018).
Read-outs that look alike come from different tables or passages of the source.

How the values were obtained:
HeLa-MaTu-ADR cells = assay: Proliferation assay HeLa-MaTu-ADR; assay type: cell-based, human; details: 4 days, crystal violet, read-out: Inhibition of HeLa-MaTu-ADR cell proliferation IC50
Protocol: (§1) Cultivated tumour cells (HeLa, human cervical tumour cells, ATCC CCL-2; NCI-H460, human non-small cell lung carcinoma cells, ATCC HTB-177; A2780, human ovarian carcinoma cells, ECACC #93112519; DU 145, hormone-independent human prostate carcinoma cells, ATCC HTB-81; HeLa-MaTu-ADR, multidrug-resistant human cervical carcinoma cells, EPO-GmbH Berlin; Caco-2, human colorectal carcinoma cells, ATCC HTB-37; B16F10, mouse melanoma cells, ATCC CRL-6475) were plated at a density of 5,000 cells/well (DU145, HeLa-MaTu-ADR), 3,000 cells/well (NCI-H460, HeLa), 2,500 cells/well (A2780), 1,500 cells/well (Caco-2), or 1,000 cells/well (B16F10) in a 96-well multititer plate in 200 μL of their respective growth medium supplemented 10% fetal calf serum. After 24 hours, the cells of one plate (zero-point plate) were stained with crystal violet (see below), while the medium of the other plates was replaced by fresh culture medium (200 μl), to which the test substances were added in various concentrations (0 μM, as well as in the range of 0.001-10 μM). The cells were incubated for 4 days in the presence of test substances. Cell proliferation was determined by staining the cells with crystal violet: the cells were fixed by adding 20 μl/measuring point of an 11% glutaric aldehyde solution for 15 minutes at room temperature. After three washing cycles of the fixed cells with water, the plates were dried at room temperature. The cells were stained by adding 100 μl/measuring point of a 0.1% crystal violet solution (pH 3.0). After three washing cycles of the stained cells with water, the plates were dried at room temperature. The dye was dissolved by adding 100 μl/measuring point of a 10% acetic acid solution. The extinction was determined by photometry at a wavelength of 595 nm. The change of cell number, in percent, was calculated by normalization of the measured values to the extinction values of the zero-point plate (=0%) and the extinction of the untreated (0 μm) cells (=100%). The IC50 values (inhibitory concentration at 50% of maximal effect) were determined by means of a 4 parameter fit. Non-adherent MOLM-13 human acute myeloid leukemia cells (DSMZ ACC 554) were seeded at a density of 5,000 cells/well in a 96-well multititer plate in 100 μL of growth medium supplemented 10% fetal calf serum. After 24 hours, cell viability of one plate (zero-point plate) was determined with the Cell Titre-Glo Luminescent Cell Viability Assay (Promega), while 50 μL of test compound containing medium was added to the wells of the other plates (final concentrations in the range of 0.001-1 μM and DMSO controls). Cell viability was assessed after 72-hour exposure with the Cell Titre-Glo Luminescent Cell Viability Assay (Promega). IC50 values (inhibitory concentration at 50% of maximal effect) were determined by means of a 4 parameter fit on measurement data which were normalized to vehicle (DMSO) treated cells (=100%) and measurement readings taken immediately before compound exposure (=0%).

Caco-2 cells = assay: Proliferation assay Caco-2; assay type: cell-based, human; details: 4 days, crystal violet, read-out: Inhibition of Caco-2 cell proliferation IC50
Protocol: as §1

CDK9/CycT1 = target: T1, CDK9/CycT1 (Homo sapiens, UniProt P50750); assay: CDK9/CycT1 kinase assay (TR-FRET, Method 1a); assay type: biochemical; details: for IC50: Method 1a, 10 μM ATP; for Selectivity CDK9 over CDK2: IC50 (CDK2)/IC50 (CDK9): Methods 1a and 2a, minimal values where CDK9 IC50 is at the assay limit
T1 construct: Recombinant full-length His-tagged human CDK9 and CycT1; His; purchased Invitrogen PV4131; host or cells: insect cells
T1 sequence (P50750 whole entry): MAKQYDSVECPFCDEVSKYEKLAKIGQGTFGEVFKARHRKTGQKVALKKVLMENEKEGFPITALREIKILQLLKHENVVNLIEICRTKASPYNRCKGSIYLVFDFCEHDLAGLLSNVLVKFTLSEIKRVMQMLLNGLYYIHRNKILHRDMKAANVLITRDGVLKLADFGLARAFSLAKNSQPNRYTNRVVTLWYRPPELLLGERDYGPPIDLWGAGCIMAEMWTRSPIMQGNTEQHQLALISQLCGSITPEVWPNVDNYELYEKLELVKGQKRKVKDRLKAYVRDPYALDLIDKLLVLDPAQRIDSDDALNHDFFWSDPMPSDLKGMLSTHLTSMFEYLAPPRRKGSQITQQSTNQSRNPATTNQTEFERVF
T1 sequence (O60563 whole entry partner): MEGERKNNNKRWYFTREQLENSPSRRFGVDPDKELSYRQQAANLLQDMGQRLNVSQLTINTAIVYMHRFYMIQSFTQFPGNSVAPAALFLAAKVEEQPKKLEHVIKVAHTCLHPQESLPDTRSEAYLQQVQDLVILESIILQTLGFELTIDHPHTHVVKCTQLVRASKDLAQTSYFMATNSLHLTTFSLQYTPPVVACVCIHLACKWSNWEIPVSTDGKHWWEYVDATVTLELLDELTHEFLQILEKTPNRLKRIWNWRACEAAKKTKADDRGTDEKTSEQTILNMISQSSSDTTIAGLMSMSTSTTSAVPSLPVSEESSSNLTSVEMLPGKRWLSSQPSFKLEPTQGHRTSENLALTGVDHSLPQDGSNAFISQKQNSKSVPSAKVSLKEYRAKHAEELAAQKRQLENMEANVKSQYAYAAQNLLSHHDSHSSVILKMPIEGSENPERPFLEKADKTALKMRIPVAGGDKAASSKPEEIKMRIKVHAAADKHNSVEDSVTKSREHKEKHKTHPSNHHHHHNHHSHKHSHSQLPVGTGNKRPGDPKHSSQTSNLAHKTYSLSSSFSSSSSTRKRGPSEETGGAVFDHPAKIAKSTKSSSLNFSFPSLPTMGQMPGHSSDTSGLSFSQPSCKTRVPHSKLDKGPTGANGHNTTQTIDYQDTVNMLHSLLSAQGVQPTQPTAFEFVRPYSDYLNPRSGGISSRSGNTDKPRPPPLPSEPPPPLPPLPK
From the text: 1a. CDK9/CycT1 Kinase Assay:
CDK9/CycT1-inhibitory activity of compounds of the present invention was quantified employing the CDK9/CycT1 TR-FRET assay as described in the following paragraphs:
Recombinant full-length His-tagged human CDK9 and CycT1, expressed in insect cells and purified by Ni-NTA affinity chromatography, were purchased from Invitrogen (Cat. No PV4131). As substrate for the kinase reaction biotinylated peptide biotin-Ttds-YISPLKSPYKISEG (C-terminus in amid form) was used which can be purchased e.g. from the company JERINI Peptide Technologies (Berlin, Germany). For the assay 50 nl of a 100 fold concentrated solution of the test compound in DMSO was pipetted into a black low volume 384 well microtiter plate (Greiner Bio-One, Frickenhausen, Germany), 2 μl of a solution of CDK9/CycT1 in aqueous assay buffer [50 mM Tris/HCl pH 8.0, 10 mM MgCl2, 1.0 mM dithiothreitol, 0.1 mM sodium ortho-vanadate, 0.01% (v/v) Nonidet-P40 (Sigma)] were added and the mixture was incubated for 15 min at 22° C. to allow pre-binding of the test compounds to the enzyme before the start of the kinase reaction. […] The concentration of CDK9/CycT1 was adjusted depending of the activity of the enzyme lot and was chosen appropriate to have the assay in the linear range, typical concentrations were in the range of 1 μg/mL. The reaction was stopped by the addition of 5 μl of a solution of TR-FRET detection reagents (0.2 μM streptavidine-XL665 [Cisbio Bioassays, Codolet, France] and 1 nM anti-RB(pSer807/pSer811)-antibody from BD Pharmingen [#558389] and 1.2 nM LANCE EU-W1024 labeled anti-mouse IgG antibody [Perkin-Elmer, product no. AD0077]) in an aqueous EDTA-solution (100 mM EDTA, 0.2% (w/v) bovine serum albumin in 100 mM HEPES pH 7.5).
The resulting mixture was incubated 1 h at 22° C. to allow the formation of complex between the phosphorylated biotinylated peptide and the detection reagents. Subsequently the amount of phosphorylated substrate was evaluated by measurement of the resonance energy transfer from the Eu-chelate to the streptavidine-XL. Therefore, the fluorescence emissions at 620 nm and 665 nm after excitation at 350 nm was measured in a HTRF reader, e.g. a Rubystar (BMG Labtechnologies, Offenburg, Germany) or a Viewlux (Perkin-Elmer). The ratio of the emissions at 665 nm and at […] was taken as the measure for the amount of phosphorylated substrate. The data were normalised (enzyme reaction without inhibitor=0% inhibition, all other assay components but no enzyme=100% inhibition).

HeLa cells = assay: Proliferation assay HeLa; assay type: cell-based, human; details: 4 days, crystal violet, read-out: Inhibition of HeLa cell proliferation IC50
Protocol: as §1

Compound | IC50 (HeLa-MaTu-ADR cells; Homo sapiens, 96 h) [nM] | IC50 (Caco-2 cells; Homo sapiens, Caco-2, 96 h) [nM] | IC50 (CDK9/CycT1) [nM] | Selectivity CDK9 over CDK2: IC50 (CDK2)/IC50 (CDK9) (CDK9/CycT1) | IC50 (HeLa cells; Homo sapiens, HeLa, 96 h) [nM] | IC50 (HeLa-MaTu-ADR cells) [nM] | IC50 (Caco-2 cells) [nM] | IC50 (HeLa cells) [nM]
CS(=N)(=O)Cc1cc2nc(c1)OCCCOc1cc(F)ccc1-c1cc(ncc1F)N2 (single isomer, unassigned; enantiomer 1) [Example 6, 15,19-Difluoro-8-[(S-methylsulfonimidoyl)methyl]-3,4-dihydro-2H,11H-10,6-(azeno)-12,16-(metheno)-1,5,11,13-benzodioxadiazacyclooctadecine; Enantiomer 1] | 5 | 5 | 3 | 0.9 | 31 |  |  | 
CS(=N)(=O)Cc1cc2nc(c1)OCCCOc1cc(F)ccc1-c1cc(ncc1F)N2 (single isomer, unassigned; enantiomer 2) [Example 7, 15,19-Difluoro-8-[(S-methylsulfonimidoyl)methyl]-3,4-dihydro-2H,11H-10,6-(azeno)-12,16-(metheno)-1,5,11,13-benzodioxadiazacyclooctadecine; Enantiomer 2] |  |  | 7.3 | 0.3 |  | 5 | 6 | 31
CSCc1cc2cc(c1)OCCCOc1cc(F)ccc1-c1nc(ncc1F)N2 [Example 2, 15,19-Difluoro-8-[(methylsulfanyl)methyl]-3,4-dihydro-2H,11H-12,16-(azeno)-10,6-(metheno)-1,5,11,13-benzodioxadiazacyclooctadecine] | 77 | 30 | 7.3 | 13.5 | 62 |  |  | 
CSCc1cc2nc(c1)OCCCOc1cc(F)ccc1-c1cc(ncc1F)N2 [Example 3, 15,19-Difluoro-8-[(methylsulfanyl)methyl]-3,4-dihydro-2H,11H-10,6-(azeno)-12,16-(metheno)-1,5,11,13-benzodioxadiazacyclooctadecine] | 70 | < 30 | 6.8 | 6.0 | 86 |  |  | 
CS(=O)(=O)Cc1cc2nc(c1)OCCCOc1cc(F)ccc1-c1cc(ncc1F)N2 [Example 8, 15,19-difluoro-8-[(methylsulfonyl)methyl]-3,4-dihydro-2H,11H-10,6-(azeno)-12,16-(metheno)-1,5,11,13-benzodioxadiazacyclooctadecine] | 9 | 11 | 3.8 | 1.3 | 12 |  |  | 
CSCc1cc2nc(c1)OCCCCOc1cc(F)ccc1-c1cc(ncc1F)N2 [Example 12, 16,20-Difluoro-9-[(methylsulfanyl)methyl]-2,3,4,5-tetrahydro-12H-11,7-(azeno)-13,17-(metheno)-1,6,12,14-benzodioxadiazacyclononadecine] | 207 | 61 | 16.5 | 6.9 | 281 |  |  | 
NCCS(=O)(=O)Cc1cc2nc(c1)OCCCOc1cc(F)ccc1-c1cc(ncc1F)N2 [Example 26, 2-({[15,19-difluoro-3,4-dihydro-2H,11H-10,6-(azeno)-12,16-(metheno)-1,5,11,13-benzodioxadiazacyclooctadecin-8-yl]methyl}sulfonyl)ethanamine] | 298 | 329 | 5.9 | 1.7 | 105 |  |  | 
({[15,19-difluoro-3,4-dihydro-2H,11H-10,6-(azeno)-12,16-(metheno)-1,5,11,13-benzodioxadiazacyclooctadecin-8-yl]methyl}sulfonyl)acetic acid [Example 27] |  |  | 2.9 | 0.8 |  | 1280 | 2100 | 1050
